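Assay format: 96-well plates, 48-hour exposure. GI50: concentration for 50% inhibition of growth. At the TGI there is no net growth.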
Tests used:
Assay in all cases: NCI tumour cell line growth inhibition, 48 h
[1] = tested on: MCF7 breast
[2] = tested on: U251 CNS
[3] = tested on: HCT-116 colon
[4] = tested on: OVCAR-4 ovarian
[5] = tested on: SNB-75 CNS
[6] = tested on: HS 578T breast
[7] = tested on: UACC-257 melanoma
[8] = tested on: LOX IMVI melanoma
[9] = tested on: SF-539 CNS
[10] = tested on: HOP-62 NSCLC

SMILES	TGI [1]	TGI [2]	TGI [3]	TGI [4]	TGI [5]	TGI [6]	TGI [7]	TGI [8]	TGI [9]	GI50 [1]	GI50 [10]	TGI [10]	GI50 [3]	GI50 [4]	GI50 [5]	GI50 [6]	GI50 [8]	GI50 [9]	GI50 [2]	GI50 [7]
CC(=O)O[C@@H]1[C@H]2O[C@H]2[C@H]2O[C@@]2(COC(=O)c2ccccc2)[C@H]1OC(C)=O	> 100 µM	> 100 µM	> 100 µM	> 100 µM	> 100 µM	> 100 µM	> 100 µM	> 100 µM	> 100 µM											
CCc1ccc2cc3c(ccc4ccccc43)c3c2c1CC3	> 100 µM		> 100 µM	> 100 µM	> 100 µM	> 100 µM		> 100 µM	> 100 µM	600 nM	> 100 µM	> 100 µM	> 100000 nM	> 100 µM	> 100000 nM	> 100000 nM	> 100 µM	> 100000 nM		
BrC(/C=N/Nc1nnc(-c2ccccc2)c(-c2ccccc2)n1)C(Br)c1ccccc1 (configuration not stated)		> 100 µM			78.6 µM		> 100 µM	> 100 µM	> 100 µM			92.2 µM								
COc1cc(CC2c3cc(OC)c(OC)cc3CCN2C)c(C(=O)O)cc1OC (configuration not stated)		> 100 µM	> 100 µM		> 100 µM		> 100 µM	> 100 µM	> 100 µM			> 100 µM								
CC(=O)Nc1ccc(/C=C/C(=O)c2sc(-n3nc(-c4ccccc4)cc3-c3ccccc3)nc2C)cc1		> 100 µM	> 100 µM	> 100 µM	> 100 µM		> 100 µM	> 100 µM	> 100 µM		> 100 µM	> 100 µM	> 100000 nM		> 100000 nM		> 100 µM	> 100000 nM	> 100000 nM	
CCOc1ccc(-c2nc3ccc(-c4nc5ccc(N6CCN(C)CC6)cc5[nH]4)cc3[nH]2)cc1OCC	3.05 µM	6.71 µM	2.72 µM	6.79 µM	2.56 µM	5.46 µM	4.76 µM		2.71 µM	498 nM	2.86 µM	7.52 µM	529 nM	2.19 µM	1030 nM	1740 nM		1200 nM	1320 nM	1330 nM
CCCCP1(=O)C=CC(Cl)=C(C)C1 (configuration not stated)		> 100 µM	> 100 µM	> 100 µM			> 100 µM		> 100 µM			> 100 µM								
O=C(c1ccccc1)N1CCc2c([nH]c3ccccc23)C1		> 100 µM	> 100 µM	> 100 µM	> 100 µM		95 µM	> 100 µM	> 100 µM			> 100 µM								
O=C(NC(=Nc1ccccc1)SCCSC(=Nc1ccccc1)NC(=O)c1ccccc1)c1ccccc1		> 100 µM	> 100 µM	> 100 µM	> 100 µM		> 100 µM	> 100 µM	> 100 µM			> 100 µM								
CN1CC[C@H](N(C)C(=O)N2CC(c3cc(F)ccc3F)=C[C@@]2(CO)c2ccccc2)[C@H](F)C1	77.6 µM	> 100 µM	> 100 µM	> 100 µM	34.9 µM	7.88 µM	41.4 µM	> 100 µM		3.33 nM			3.35 nM	20.5 µM	40.2 nM	29.3 nM	0.0415 µM	4.98 nM		
